{"source": "patent US11696914B1", "about": "(priority 2019, dated 2023)", "key": {"[1]": {"system": "Vesicular Stomatitis Virus (VSV) pseudotyped with EBOV glycoprotein", "experiment": "microbe, parasite or virus in culture", "format": "cell-based, Ebola virus", "details": "HeLa, read-out: IC50, inhibition of EBOV-VSV pseudovirus entry"}, "in vitro [2]": {"experiment": "in vitro", "details": "mouse"}, "Zika virus [3]": {"system": "Zika virus", "experiment": "microbe, parasite or virus in culture", "format": "cell-based", "details": "Huh-7"}, "Poliovirus 3": {"system": "Poliovirus 3", "experiment": "microbe, parasite or virus in culture", "format": "cell-based", "details": "Enterovirus C, Vero 76"}, "Chikungunya virus": {"system": "Chikungunya virus", "experiment": "microbe, parasite or virus in culture", "format": "cell-based", "details": "Vero 76"}, "[4]": {"system": "Ebola virus/H.sapiens-tc/GIN/2014/Makona-005 (EBOV/Mak)", "experiment": "microbe, parasite or virus in culture", "format": "cell-based", "details": "Zaire ebolavirus, HeLa"}, "Hartley guinea pigs": {"system": "Hartley guinea pigs", "details": "both, guinea pig, in vivo"}, "Dengue Virus 2": {"system": "Dengue Virus 2", "experiment": "microbe, parasite or virus in culture", "format": "cell-based", "details": "Vero 76"}, "in vitro [5]": {"experiment": "in vitro", "details": "African green monkey"}, "Hepatitis B virus": {"system": "Hepatitis B virus", "experiment": "microbe, parasite or virus in culture", "format": "cell-based", "details": "HepG2 2.2.15"}, "SARS-CoV-2": {"system": "SARS-CoV-2", "experiment": "microbe, parasite or virus in culture", "format": "cell-based"}, "[6]": {"details": "microsomes"}, "Yellow Fever virus": {"system": "Yellow Fever virus", "experiment": "microbe, parasite or virus in culture", "format": "cell-based", "details": "Vero 76"}, "Zika virus [7]": {"system": "Zika virus", "experiment": "microbe, parasite or virus in culture", "format": "cell-based", "details": "Vero 76"}, "Herpes Simplex Virus 1": {"system": "Herpes Simplex Virus 1", "experiment": "microbe, parasite or virus in culture", "format": "cell-based", "details": "Human alphaherpesvirus 1"}, "[8]": {"system": "Marburg virus/H.sapiens-tc/KEN/1980/Mt. Elgon-Musoke (MARV/Mus)", "experiment": "organism not typed", "format": "cell-based", "details": "HeLa"}, "HeLa cells": {"system": "HeLa cells", "details": "human"}, "[9]": {"system": "Marburg virus/H.sapiens-tc/AGO/2005/Ang-1379v (MARV/Ang)", "experiment": "organism not typed", "format": "cell-based", "details": "HeLa"}, "[10]": {"system": "Ebola virus/H.sapiens-tc/COD/1995/Kikwit-9510621 (EBOV/Kik)", "experiment": "microbe, parasite or virus in culture", "format": "cell-based", "details": "Zaire ebolavirus, HeLa"}, "Influenza A virus H1N1": {"system": "Influenza A virus H1N1", "experiment": "microbe, parasite or virus in culture", "format": "cell-based", "details": "H1N1, MDCK"}, "SARS-CoV-2 Spike RBD": {"molecular_target": "SARS-CoV-2 Spike RBD (Severe acute respiratory syndrome coronavirus 2, UniProt P0DTC2)", "format": "binding"}, "Hepatitis C virus": {"system": "Hepatitis C virus", "experiment": "microbe, parasite or virus in culture", "format": "cell-based", "details": "Huh-7"}, "[11]": {"system": "Respiratory synactial virus", "experiment": "organism not typed", "format": "cell-based", "details": "MA104"}, "West Nile virus": {"system": "West Nile virus", "experiment": "microbe, parasite or virus in culture", "format": "cell-based", "details": "Vero 76"}, "[12]": {"details": "human, microsomes, 1 h, pH 7.4"}, "in vitro [13]": {"experiment": "in vitro", "details": "human"}, "MERS coronavirus": {"system": "MERS coronavirus", "experiment": "microbe, parasite or virus in culture", "format": "cell-based", "details": "Middle East respiratory syndrome-related coronavirus, Vero 76"}, "[14]": {"details": "human, microsomes"}, "[15]": {"system": "Marburg virus (MARV), Musoke strain", "experiment": "organism not typed", "format": "cell-based", "details": "HeLa; n=6; read-out: IC50 ± SEM versus MARV Musoke strain"}, "Murine norovirus": {"system": "Murine norovirus", "experiment": "microbe, parasite or virus in culture", "format": "cell-based", "details": "Norwalk virus, RAW267.4"}, "HepG2 2.2.15": {"system": "HepG2 2.2.15", "details": "human"}, "Vero": {"system": "Vero", "details": "African green monkey"}, "[16]": {"details": "mouse, microsomes; cited from earlier work"}, "Rift Valley fever virus": {"system": "Rift Valley fever virus", "experiment": "microbe, parasite or virus in culture", "format": "cell-based", "details": "Vero 76"}, "Vaccinia Virus": {"system": "Vaccinia Virus", "experiment": "microbe, parasite or virus in culture", "format": "cell-based", "details": "Orthopoxvirus vaccinia"}, "[17]": {"details": "guinea pig, pH 7.4"}, "Norovirus": {"system": "Norovirus", "experiment": "microbe, parasite or virus in culture", "format": "cell-based", "details": "HG23"}, "[18]": {"details": "guinea pig, microsomes"}, "Ebola virus": {"system": "Ebola virus", "experiment": "microbe, parasite or virus in culture", "format": "cell-based", "details": "Zaire ebolavirus, Vero 76"}, "Human cytomegalovirus": {"system": "Human cytomegalovirus", "experiment": "microbe, parasite or virus in culture", "format": "cell-based", "details": "Human betaherpesvirus 5"}, "[19]": {"system": "murine hepatitis virus (MHV)", "experiment": "microbe, parasite or virus in culture", "format": "cell-based", "details": "Murine coronavirus, read-out: IC50 versus murine hepatitis virus (MHV)"}}, "note": "Values joined by “and” are separate entries in the source; they are usually repeats but may differ in a detail not shown here. Equal values may be shown once. Read-outs that look alike come from different tables or passages of the source."}
{"smiles": "COc1ccc2nc3cc(Cl)ccc3c(Nc3cc(CN4CCCC4)c(O)c(CN4CCCC4)c3)c2n1", "note": "[Pyronaridine, 4-[(7-Chloro-2-methoxybenzo[b][1,5]naph-thyridin-10-yl)amino]-2,6-bis(1-pyrrolidinylmethyl)phenol phosphate (1:4)]", "values": [{"measurement": "IC50", "setting": "[1]", "result": 2.07, "unit": "µM"}, {"measurement": "CC50", "setting": "in vitro [2]", "result": "> 40", "unit": "µM"}, {"measurement": "EC50", "setting": "Zika virus [3]", "result": 3.2, "unit": "µM"}, {"measurement": "EC50", "setting": "Poliovirus 3", "result": 3.2, "unit": "µM"}, {"measurement": "EC50", "setting": "Chikungunya virus", "result": 3.2, "unit": "µM"}, {"measurement": "IC50", "setting": "[4]", "result": "0.82 ± 0.19", "unit": "µM"}, {"measurement": "guinea pigs found dead on days 5 and 6", "setting": "Hartley guinea pigs", "result": "2 of 6"}, {"measurement": "guinea pigs found dead within 30 mins post injection", "setting": "Hartley guinea pigs", "result": "4 of 6"}, {"measurement": "guinea pigs having any abnormal clinical observations", "setting": "Hartley guinea pigs", "result": "1 of 6"}, {"measurement": "maximum tolerated dose (MTD), single dose", "setting": "Hartley guinea pigs; ip", "result": 125, "unit": "mg/kg"}, {"measurement": "maximum tolerated dose (MTD), single dose", "setting": "Hartley guinea pigs; po", "result": "> 600", "unit": "mg/kg"}, {"measurement": "EC50", "setting": "Dengue Virus 2", "result": 3.2, "unit": "µM"}, {"measurement": "CC50", "setting": "in vitro [5]", "result": 7.5, "unit": "µM"}, {"measurement": "EC50", "setting": "Hepatitis B virus", "result": 4.52, "unit": "µM"}, {"measurement": "EC90", "setting": "Hepatitis B virus", "result": "> 100", "unit": "µM"}, {"measurement": "IC50", "setting": "SARS-CoV-2; Severe acute respiratory syndrome coronavirus 2, A549-ACE2, read-out: IC50 against SARS-CoV-2", "result": "< 0.2", "unit": "µM"}, {"measurement": "IC50", "setting": "SARS-CoV-2; read-out: IC50 against SARS-CoV-2", "result": "~0.198 µM and 0.198 µM"}, {"measurement": "Clint", "setting": "[6]", "result": 15.5}, {"measurement": "Dextromethorphan: compound, t1/2 normalized to dextromethorphan control", "setting": "[6]", "result": 16.7}, {"measurement": "t1/2", "setting": "[6]; monkey", "result": 1.5, "unit": "h"}, {"measurement": "EC50", "setting": "Yellow Fever virus", "result": 3.2, "unit": "µM"}, {"measurement": "EC50", "setting": "Zika virus [7]", "result": 3.2, "unit": "µM"}, {"measurement": "EC50", "setting": "Herpes Simplex Virus 1", "result": "> 6", "unit": "µM"}, {"measurement": "EC90", "setting": "Herpes Simplex Virus 1", "result": "> 6", "unit": "µM"}, {"measurement": "IC50", "setting": "[8]", "result": "1.01 ± 0.11", "unit": "µM"}, {"measurement": "CC50", "setting": "HeLa cells", "result": "4.11 ± 0.5", "unit": "µM"}, {"measurement": "IC50", "setting": "[9]", "result": "2.72 ± 0.97", "unit": "µM"}, {"measurement": "IC50", "setting": "[9]; read-out: IC50 range against two strains of Marburg virus", "result": "1.01 to 2.72", "unit": "µM"}, {"measurement": "IC50", "setting": "[10]", "result": "1.3 ± 0.42", "unit": "µM"}, {"measurement": "IC50", "setting": "[10]; read-out: IC50 range against three strains of EBOV", "result": "0.82 to 1.3", "unit": "µM"}, {"measurement": "EC50", "setting": "Influenza A virus H1N1", "result": 3.2, "unit": "µM"}, {"measurement": "Kd", "setting": "SARS-CoV-2 Spike RBD; pH5.2", "result": 0.618, "unit": "µM"}, {"measurement": "Kd", "setting": "SARS-CoV-2 Spike RBD; pH 7.4", "result": 0.647, "unit": "µM"}, {"measurement": "EC50", "setting": "Hepatitis C virus", "result": 0.78, "unit": "µM"}, {"measurement": "EC90", "setting": "Hepatitis C virus", "result": 1.71, "unit": "µM"}, {"measurement": "EC50", "setting": "[11]", "result": "> 7.5", "unit": "µM"}, {"measurement": "EC50", "setting": "West Nile virus", "result": "> 24", "unit": "µM"}, {"measurement": "Relative Peak Area/Abundance HLM", "setting": "[12]", "result": 85.9, "unit": "%"}, {"measurement": "CC50", "setting": "in vitro [13]", "result": "> 100", "unit": "µM"}, {"measurement": "EC50", "setting": "MERS coronavirus", "result": 3.2, "unit": "µM"}, {"measurement": "Clint", "setting": "[14]", "result": 11.4}, {"measurement": "Dextromethorphan: compound, t1/2 normalized to dextromethorphan control", "setting": "[14]", "result": 6.2}, {"measurement": "t1/2", "setting": "[14]", "result": 2.037, "unit": "h"}, {"measurement": "IC50", "setting": "[15]", "result": "1.08 ± 0.197", "unit": "µM"}, {"measurement": "EC50", "setting": "Murine norovirus", "result": "> 40", "unit": "µM"}, {"measurement": "EC90", "setting": "Murine norovirus", "result": "> 40", "unit": "µM"}, {"measurement": "CC50", "setting": "HepG2 2.2.15", "result": 3.54, "unit": "µM"}, {"measurement": "CC50", "setting": "Vero", "result": 3.2, "unit": "µM"}, {"measurement": "Relative Peak Area/Abundance MLM", "setting": "[16]", "result": 100, "unit": "%"}, {"measurement": "EC50", "setting": "Rift Valley fever virus", "result": 3.2, "unit": "µM"}, {"measurement": "EC50", "setting": "Vaccinia Virus", "result": "> 1.2", "unit": "µM"}, {"measurement": "EC90", "setting": "Vaccinia Virus", "result": "> 1.2", "unit": "µM"}, {"measurement": "Relative Peak Area/Abundance GPLM", "setting": "[17]", "result": 75.9, "unit": "%"}, {"measurement": "EC50", "setting": "Norovirus", "result": 3.5, "unit": "µM"}, {"measurement": "EC90", "setting": "Norovirus", "result": 9.7, "unit": "µM"}, {"measurement": "Clint", "setting": "[18]", "result": 21.0}, {"measurement": "Dextromethorphan: compound, t1/2 normalized to dextromethorphan control", "setting": "[18]", "result": 23.4}, {"measurement": "t1/2", "setting": "[18]", "result": 1.1, "unit": "h"}, {"measurement": "EC50", "setting": "Ebola virus", "result": "> 1.3", "unit": "µM"}, {"measurement": "EC50", "setting": "Human cytomegalovirus", "result": "> 1.2", "unit": "µM"}, {"measurement": "EC90", "setting": "Human cytomegalovirus", "result": "> 1.2", "unit": "µM"}, {"measurement": "IC50", "setting": "[19]", "result": 2.75, "unit": "µM"}]}
